According to US20220401514A1, “ANTIMICROBIAL, BACTERIOPHAGE-DERIVED POLYPEPTIDES AND THEIR USE AGAINST GRAM-NEGATIVE AND ACID-FAST BACTERIA” (CONTRAFECT CORPORATION, priority 2019, published 2022):
Read-outs that look alike come from different tables or passages of the source.

Assays:
[1] = Stability assessment in 100% CAA; format: in vitro ADME; set-up: unit not given beside the values
Protocol: Stability was assessed after incubation in 100% human serum at 37° C. after 10 minutes, 1 hour, and 2 hours.
Stability assessment was further conducted in 100% CAA and rabbit serum using the same methodology discussed above.

M. smegmatis = assay: 45 hr MIC against M. smegmatis (NTM), Mueller Hinton broth; format: cell-based, Mycobacterium smegmatis
[2] = tested on: P. aeruginosa strain CFS-1292; assay: MIC in presence and absence of Survanta pulmonary surfactant; format: cell-based, Pseudomonas aeruginosa
[3] = tested on: carbapenem-resistant bacterial strains; assay: organism not typed; format: cell-based
Description: (§1) Determination of Minimal Inhibitory Concentrations (MIC).

M. scrofulaceum = assay: 45 hr MIC against M. scrofulaceum (NTM); format: cell-based, Mycobacterium scrofulaceum; conditions: M. scrofulaceum Prissick and Masson ATCC 19981
[4] = tested on: P. aeruginosa strain CFS-1292; assay: MIC in presence of mouse, rat, rabbit and human serum ([…] each); format: cell-based, Pseudomonas aeruginosa; conditions: P. aeruginosa CFS-1292
Protocol: The activity of several Chp peptides against P. aeruginosa strain CFS-1292 in animal serum was evaluated. […] Rat, mouse, and rabbit serum were all obtained from pooled gender samples.

[5] = tested on: Mycobacterium tuberculosis strains
Protocol: MIC values for various Chp peptides were determined using the CLSI method for broth microdilution in 96-well microtiter format.
Next, MIC values for various Chp peptides were determined using the CLSI method above for broth microdilution in 96-well microtiter format for two different Mycobacterium tuberculosis strains. The MIC was determined as explained above for the NTM strains.

S. maltophilia = assay: MIC against S. maltophilia isolates; format: cell-based, Stenotrophomonas maltophilia; conditions: S. maltophilia isolates (n per peptide in table)
Outline: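 MIC in μg/mL for Chp peptides across several S. maltophilia isolates, n denoting the number of isolates tested.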

[6] = tested on: P. aeruginosa strain CFS-1292; assay: MIC in presence and absence of NaCl (140 mM); format: cell-based, Pseudomonas aeruginosa
Protocol: Certain Chp peptides were evaluated over a range of physiological NaCl levels and pH values, and were further evaluated for activity in the presence of various divalent cations.

Klebsiella pneumoniae = format: cell-based
Protocol: as §1
(§2) Additional MIC testing was performed for several peptides against the ESKAPE pathogens Escherichia coli, Enterobacter cloacae, Klebsiella pneumoniae, and Acinetobacter baumannii, in CAA supplemented with human serum (Table D).

M. avium = assay: 45 hr MIC against M. avium (NTM); format: cell-based, Mycobacterium avium; conditions: M. avium Chester ATCC 700898
[7] = tested on: P. aeruginosa strain CFS-1292; assay: MIC in presence of divalent cations (calcium chloride, magnesium sulfate); format: cell-based, Pseudomonas aeruginosa
Protocol: Next, Chp peptides were evaluated in the presence of different divalent cations. […]; (2) in the presence of 2 mM calcium chloride alone; (3) in the presence of 1 mM magnesium sulfate alone; and (4) in the presence of both 2 mM calcium chloride and 1 mM magnesium sulfate. […]

[8] = tested on: Pseudomonas aeruginosa, Escherichia coli, Enterobacter cloacae, Klebsiella pneumoniae, and Acinetobacter baumannii; assay: MIC against a range of Gram-negative organisms (statements covering several species); format: cell-based; conditions: Tables 40-44 isolates
Protocol: as §1, §2

[9] = tested on: carbapenem-resistant P. aeruginosa clinical isolate CFS-1292; assay: MIC by modified CLSI broth microdilution against P. aeruginosa CFS-1292 (CAA, CAA + human serum); format: cell-based, Pseudomonas aeruginosa
Acinetobacter baumannii = assay: microbe, parasite or virus in culture; format: cell-based
M. intracellulare = assay: 45 hr MIC against M. intracellulare (NTM); format: cell-based, Mycobacterium intracellulare; conditions: M. intracellulare (Cuttino and McCabe) Runyon ATCC 13950
Pseudomonas aeruginosa = assay: microbe, parasite or virus in culture; format: cell-based; conditions: P. aeruginosa isolates (n per peptide in table)
Enterobacter cloacae = assay: microbe, parasite or virus in culture; format: cell-based
Outline: (§3)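 Strains are exposed to peptide dilutions in CAA containing human serum, and the minimal inhibitory concentration is recorded.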

Escherichia coli = assay: microbe, parasite or virus in culture; format: cell-based
Outline: as §3

P. aeruginosa = assay: 24-hour time-kill assay at 0.2x, 1x, 5x MIC in CAA, P. aeruginosa; format: cell-based, Pseudomonas aeruginosa
Protocol: The time-kill assays were performed in CAA media at 37° C. with aeration. Quantitative plating was performed at time periods of 0 hours, 1 hour, 3 hours, and 24 hours. The following Chp peptides were evaluated: Chp2, Chp4, Chp2-M1, Chp4-M1, Chp6, Chp6-M1, Chp10, Chp10-M1, Ecp3, Ecp3-M1, Unp2, Unp2-M1, and Ecp1-M1.

[10] = tested on: P. aeruginosa strain CFS-1292; assay: MIC at pH 6, pH 7 and pH 8; format: cell-based, Pseudomonas aeruginosa
Protocol: The Chp peptides were further evaluated at varying pH levels. The MIC values were determined at pH 6, pH 7, and pH 8 for 18 different Chp peptides against P. aeruginosa strain CFS-1292. […]

[11] = tested on: M. kansasii Hauduroy ATCC 12478; assay: 45 hr MIC against M. kansasii (NTM), Mueller Hinton broth; format: cell-based, Mycobacterium kansasii
M. fortuitum = assay: 45 hr MIC against M. fortuitum (NTM); format: cell-based, Mycobacterium fortuitum; conditions: M. fortuitum subsp. Fortuitum da Costa Cruz. ATCC 6841
[12] = K. pneumoniae isolates (n per peptide in table)
[13] = A. baumannii isolates (n per peptide in table)
[14] = E. cloacae isolates (n per peptide in table)
[15] = E. coli isolates (n per peptide in table)

MKRRKLSKKKSRKIFTRGAVNVKKRNLRARPMRGGFRI [Chp10]
MIC (100% CAA) [1]: 0.5
45 hr MIC (M. smegmatis; M. smegmatis MC^2 155, Run #1): 2 µg/mL
45 hr MIC (M. smegmatis; M. smegmatis MC^2 155, Run #2): 1 µg/mL
MIC ([2]; CAA media + 0.19 mg/mL Survanta): 0.5 µg/mL
MIC ([2]; CAA media + […] Survanta): 0.5 µg/mL
MIC ([2]; CAA media alone): 0.5 µg/mL
MIC ([3]; carbapenem-resistant isolate PA19): 0.5 µg/mL
MIC ([3]; carbapenem-resistant isolate PA20): 8 µg/mL
MIC ([3]; carbapenem-resistant isolate PA21): 8 µg/mL
MIC ([3]; carbapenem-resistant isolate PA22): 8 µg/mL
MIC ([3]; carbapenem-resistant isolate PA23): 4 µg/mL
MIC ([3]; carbapenem-resistant isolate PA24): 4 µg/mL
MIC ([3]; carbapenem-resistant isolate WLC-452): 1 µg/mL
45 hr MIC (M. scrofulaceum): 0.5 µg/mL
MIC BALB/C Mouse Serum ([4]; BALB/C mouse serum […]): 32 µg/mL
MIC CAA ([4]; CAA): 1 µg/mL
MIC New Zealand White Rabbit Serum ([4]; New Zealand White rabbit serum […]): 4 µg/mL
MIC Sprague Dawley Rat Serum ([4]; Sprague Dawley rat serum […]): 4 µg/mL
MIC Human Serum ([4]; human serum […]): 1 µg/mL
MIC ([5]; Mycobacterium tuberculosis (Zopf) Lehmann and Neumann ATCC 25177): 32 µg/mL
MIC ([5]; Mycobacterium tuberculosis (Zopf) Lehmann and Neumann ATCC 35817): 8 µg/mL
MIC50 (S. maltophilia): 8 µg/mL
MIC100 (S. maltophilia): >8 µg/mL
Fold change in MIC ([6]; CAA + 140 mM NaCl versus CAA without added NaCl): 4
MIC, CAA + 140 mM NaCl ([6]; CAA + 140 mM NaCl, P. aeruginosa CFS-1292): 2 µg/mL
MIC, CAA (no added NaCl) ([6]; CAA, no added NaCl, P. aeruginosa CFS-1292): 0.5 µg/mL
MIC50 (Klebsiella pneumoniae; [12]): 0.25 µg/mL
MIC100 (Klebsiella pneumoniae; [12]): 0.5 µg/mL
MIC Range (Klebsiella pneumoniae; [12]): 0.125 to 0.5 µg/mL
MIC (Klebsiella pneumoniae; Klebsiella pneumoniae HM-44, CAA supplemented with human serum): 0.5 µg/mL
45 hr MIC (M. avium): 0.5 µg/mL
MIC ([7]; CAA media + 1 mM MgSO4): 1 µg/mL
MIC ([7]; CAA media + 2 mM CaCl2): 1 µg/mL
MIC ([7]; CAA media + + 1 mM MgSO4): 2 µg/mL
MIC ([7]; CAA media alone): 0.5 µg/mL
activity (good = MIC100 of ≤4) against all of P. aeruginosa, K. pneumoniae, A. baumannii, E. cloacae, and E. coli [8]: good activity
MIC (μg/mL) against CFS-1292 in 100% CAA (1st run/2nd run) ([9]; 100% CAA, 1st run or single value): 0.5 µg/mL
MIC (μg/mL) against CFS-1292 in CAA + […] human serum ([9]; CAA + […] human serum): 0.5 µg/mL
MIC50 (Acinetobacter baumannii; [13]): 0.5 µg/mL
MIC100 (Acinetobacter baumannii; [13]): 0.5 µg/mL
MIC Range (Acinetobacter baumannii; [13]): 0.25 to 0.5 µg/mL
MIC (Acinetobacter baumannii; Acinetobacter baumannii ATCC BAA 747, CAA supplemented with human serum): 2 µg/mL
45 hr MIC (M. intracellulare): 0.5 µg/mL
MIC50 (Pseudomonas aeruginosa): 4 µg/mL
MIC100 (Pseudomonas aeruginosa): 8 µg/mL
MIC Range (Pseudomonas aeruginosa): 0.5 to 8 µg/mL
MIC50 (Enterobacter cloacae; [14]): 0.25 µg/mL
MIC100 (Enterobacter cloacae; [14]): 1 µg/mL
MIC Range (Enterobacter cloacae; [14]): 0.125 to 2 µg/mL
MIC (Enterobacter cloacae; Enterobacter cloacae ATCC 13047, CAA supplemented with human serum): 1 µg/mL
MIC50 (Escherichia coli; [15]): 0.5 µg/mL
MIC100 (Escherichia coli; [15]): 1 µg/mL
MIC Range (Escherichia coli; [15]): 0.03 to 0.2 µg/mL
MIC (Escherichia coli; Escherichia coli ATCC 25922, CAA supplemented with human serum): 0.5 µg/mL
Log10 CFU/mL compared to untreated control buffer (24-hour time-kill) (P. aeruginosa): all but Chp10 maintaining strong efficacy up to 24 hours
MIC ([10]; CAA media (pH 7)): 0.5 µg/mL
MIC ([10]; pH 6): 2 µg/mL
MIC ([10]; pH 7): 1 µg/mL
MIC ([10]; pH 8): 1 µg/mL
45 hr MIC [11]: 4 µg/mL
45 hr MIC (M. fortuitum): 1 µg/mL
